Measurements published in patent EP4653440A1, “HETEROCYCLIC COMPOUND, AND PHARMACEUTICAL COMPOSITION AND USE THEREOF” (Prime Gene Therapeutics Co., Ltd., priority 2023, dated 2024).

Assays:
[1] = molecular target: ROCK2 (Homo sapiens, UniProt O75116); test: ROCK2 kinase enzymatic activity (HTRF, STK2 substrate); assay type: biochemical; details: ROCK2 kinase reaction 30 minutes at room temperature
Description: (§1) The kinase activity data was expressed by comparing the kinase activity of the test compound and that of the blank group (containing only DMSO), and the IC50 value was obtained by curve fitting using Prism software (GraphPad7.0).

[2] = tested on: phosphorylation of myosin light chain T18/S19; test: In Cell Western for phosphorylation of myosin light chain in A7r5 cells; assay type: cell-based, rat; details: Rattus norvegicus, A7R5, 1 h
Description: The rat smooth muscle cell line A7r5 was used, and the A7r5 cell culture conditions were DMEM containing 10% FBS. Phspho-MLC-T18/S19 specific antibody and a second detection antibody were used to detect the phosphorylation level of myosin light chain by In Cell Western. Cells treated with positive compounds were used as positive controls, while the group without compounds but with compound solvents was used as negative controls. DRAQ5 stained cell nuclei were used as internal references. GraphPad Prism 7.0 software was used, and fitting was carried out by using a non-linear regression curve with varying slopes to determine the absolute IC50 value.
On the first day, A7r5 cells were resuspended in serum-free medium and seeded into 384 wells of PDL coated transparent black plates at a density of 5000 cells per well. Serum starvation culture was performed for 4 hours, and the cells were incubated with the compound in serum-free medium for 1 hour. 50 µL of 8% PFA (polyformaldehyde) was added to each well and fixed at room temperature for 1 hour. The liquid in the wells was discard and 90 µL of ice methanol was added to each well to permeabilize the cells at 4 °C for 1 hour. Then, PBST (0.1% Tween20-PBS) was added using an automatic separator to wash three times. After patting the plate for drying, 50 µL blocking solution was added to each well for sealing at room temperature for 1 hour. The phspho-MLC-T18/S19 specific antibody was diluted with the blocking solution at a ratio of 1:200. After adding 20 µL to each well, incubation was carried out overnight at 4 °C with a sealed film.
On the second day, the liquid in the wells was discarded and PBST was added using an automatic separator to wash the plate 5 times. After patting the plate for drying, the second detection antibody was diluted with blocking solution at a ratio of 1:800 and DRAQ5 at a ratio of 1:1000. After adding 20 µL to each well, incubation was carried out at room temperature for 1 hour. Then, the liquid in the wells was discarded and PBST was added using an automatic separator to wash the plate 3 times, followed by adding ddH2O to wash the plate 3 times. After patting the plate for drying, it was scaned using a LICOR Odyssey near-infrared imaging scanner.

[3] = molecular target: ROCK1 (Homo sapiens, UniProt Q13464); test: ROCK1 kinase enzymatic activity (HTRF, STK2 substrate); assay type: biochemical; details: ROCK1 kinase reaction 20 minutes at room temperature
Description: as §1

[4] = tested on: Norwegian rat glaucoma model induced by hypertonic saline solution; test: Norwegian rat glaucoma model induced by hypertonic saline solution (intraocular pressure); assay type: in vivo; details: 0.02% eye drops once a day, one drop; compared with model control group; 0 to 24 hours after administration
Description: Experimental method: after animal anesthesia, the lateral canthus of the right eye was incised, and a polypropylene ring was placed at the equator of the eyeball, with the notch of the ring located in the upper quadrant of the eyeball, leaving only one scleral surface vein above. […] After injection, the polypropylene ring was removed and antibiotic eye ointment was applied to the operated eye.
After modeling, a rebound tonometer was used continuously to measure the intraocular pressure of both eyes, once every 3 days, and the average of 6 measurements was took each time and recorded; After the intraocular pressure had been stabilized (about 20 days later), the subjects were randomly divided into three groups based on the most recent measurement of intraocular pressure and body weight: sham surgery group, model control group, and test drug group (0.02% Example 29) group, with 5 animals in each group. After grouping, eye drops were administered once a day, with one drop per time. During the administration period, dynamic intraocular pressure was measured once a week (detecting the intraocular pressure change curve from 0 to 24 hours after administration) until the end of the experiment.

ROCK2, sequence (O75116 whole entry): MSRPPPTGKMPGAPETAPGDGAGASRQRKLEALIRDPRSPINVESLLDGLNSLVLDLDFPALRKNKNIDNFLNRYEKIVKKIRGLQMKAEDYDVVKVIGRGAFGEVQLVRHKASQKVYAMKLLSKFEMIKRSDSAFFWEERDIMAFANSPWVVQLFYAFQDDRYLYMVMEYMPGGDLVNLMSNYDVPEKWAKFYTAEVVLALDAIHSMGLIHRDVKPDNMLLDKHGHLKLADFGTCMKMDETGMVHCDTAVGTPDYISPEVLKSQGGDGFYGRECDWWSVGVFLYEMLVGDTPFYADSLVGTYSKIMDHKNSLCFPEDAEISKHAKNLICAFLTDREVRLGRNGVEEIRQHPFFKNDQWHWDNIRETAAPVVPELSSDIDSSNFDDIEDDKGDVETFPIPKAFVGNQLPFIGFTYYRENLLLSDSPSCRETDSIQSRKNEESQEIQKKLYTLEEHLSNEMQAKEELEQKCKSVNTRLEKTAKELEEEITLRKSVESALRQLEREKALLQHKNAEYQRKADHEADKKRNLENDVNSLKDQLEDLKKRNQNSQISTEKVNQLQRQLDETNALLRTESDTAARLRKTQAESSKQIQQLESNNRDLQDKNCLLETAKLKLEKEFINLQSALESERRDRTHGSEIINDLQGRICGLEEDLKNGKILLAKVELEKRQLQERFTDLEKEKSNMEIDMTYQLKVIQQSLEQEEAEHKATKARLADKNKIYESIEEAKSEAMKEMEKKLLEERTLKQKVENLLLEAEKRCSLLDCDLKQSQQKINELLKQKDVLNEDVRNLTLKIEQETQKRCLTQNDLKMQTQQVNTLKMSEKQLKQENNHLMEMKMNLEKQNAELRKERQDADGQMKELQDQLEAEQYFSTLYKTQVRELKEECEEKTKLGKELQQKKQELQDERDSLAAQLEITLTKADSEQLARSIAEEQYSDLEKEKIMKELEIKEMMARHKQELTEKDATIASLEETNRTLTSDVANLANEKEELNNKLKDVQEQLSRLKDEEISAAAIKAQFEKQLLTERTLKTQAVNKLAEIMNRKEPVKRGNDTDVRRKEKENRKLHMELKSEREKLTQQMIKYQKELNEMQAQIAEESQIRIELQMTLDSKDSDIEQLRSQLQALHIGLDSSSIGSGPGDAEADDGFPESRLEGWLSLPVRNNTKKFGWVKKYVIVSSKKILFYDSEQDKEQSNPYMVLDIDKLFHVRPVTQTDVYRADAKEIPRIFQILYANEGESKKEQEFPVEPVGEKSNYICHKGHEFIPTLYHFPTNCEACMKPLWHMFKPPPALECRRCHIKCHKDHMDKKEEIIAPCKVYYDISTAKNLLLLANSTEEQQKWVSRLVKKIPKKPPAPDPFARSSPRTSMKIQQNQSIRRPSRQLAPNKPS
ROCK1, sequence (Q13464 whole entry): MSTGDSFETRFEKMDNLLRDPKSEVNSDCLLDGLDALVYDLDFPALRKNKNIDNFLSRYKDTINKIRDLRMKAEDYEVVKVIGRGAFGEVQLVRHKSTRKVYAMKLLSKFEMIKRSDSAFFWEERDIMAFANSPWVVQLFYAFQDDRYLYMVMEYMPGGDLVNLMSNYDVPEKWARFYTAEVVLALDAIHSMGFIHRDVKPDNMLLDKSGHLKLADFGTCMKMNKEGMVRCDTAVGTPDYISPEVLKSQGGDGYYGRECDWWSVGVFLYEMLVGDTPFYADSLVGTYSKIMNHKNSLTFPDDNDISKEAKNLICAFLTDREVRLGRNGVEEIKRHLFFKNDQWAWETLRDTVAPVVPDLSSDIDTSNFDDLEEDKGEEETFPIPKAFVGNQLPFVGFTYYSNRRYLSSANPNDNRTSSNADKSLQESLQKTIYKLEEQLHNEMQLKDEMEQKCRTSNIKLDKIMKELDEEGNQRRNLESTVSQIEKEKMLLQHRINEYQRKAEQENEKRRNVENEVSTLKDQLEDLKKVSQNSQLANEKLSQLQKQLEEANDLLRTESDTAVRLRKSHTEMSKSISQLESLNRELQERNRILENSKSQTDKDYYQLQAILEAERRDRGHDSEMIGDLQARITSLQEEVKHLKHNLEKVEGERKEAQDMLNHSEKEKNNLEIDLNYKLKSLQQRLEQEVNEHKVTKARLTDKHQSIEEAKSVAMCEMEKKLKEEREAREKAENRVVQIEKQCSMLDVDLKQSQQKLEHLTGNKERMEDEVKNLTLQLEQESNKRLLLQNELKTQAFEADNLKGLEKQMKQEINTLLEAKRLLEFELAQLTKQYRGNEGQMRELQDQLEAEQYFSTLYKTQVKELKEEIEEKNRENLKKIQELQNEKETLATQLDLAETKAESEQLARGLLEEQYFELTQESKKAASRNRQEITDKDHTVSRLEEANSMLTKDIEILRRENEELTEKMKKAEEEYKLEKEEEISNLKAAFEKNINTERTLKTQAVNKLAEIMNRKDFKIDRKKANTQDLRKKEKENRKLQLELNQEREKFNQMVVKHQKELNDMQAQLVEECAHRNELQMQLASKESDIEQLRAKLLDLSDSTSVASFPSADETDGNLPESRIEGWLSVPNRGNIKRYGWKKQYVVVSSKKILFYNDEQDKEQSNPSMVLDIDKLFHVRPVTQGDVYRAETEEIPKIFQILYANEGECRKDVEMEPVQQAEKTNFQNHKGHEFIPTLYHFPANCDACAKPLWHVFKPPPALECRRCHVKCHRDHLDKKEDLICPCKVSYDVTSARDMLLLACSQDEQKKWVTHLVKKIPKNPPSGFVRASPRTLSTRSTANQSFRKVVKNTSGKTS

| IC50 [1] | IC50 [2] | IC50 [3] | Structure (SMILES) | intraocular pressure [4] |
| --- | --- | --- | --- | --- |
| < 2 nM | 88 nM | < 5 nM | N#CC[C@@H](C1CC1)n1cc(-c2ncnc3[nH]ccc23)c(N)n1 [Example 26, (S)-3-(3-amino-4-(7H-pyrrolo[2,3-d]pyrimidin-4-yl)-1H-pyrazol-1-yl)-3-cyclopropylpropionitrile] | – |
| < 5 nM | 95 nM | < 5 nM | N#CC[C@H](C1CCC1)n1cc(-c2ncnc3[nH]ccc23)c(N)n1 [Example 27, (R)-3-(3-amino-4-(7H-pyrrolo[2,3-d]pyrimidin-4-yl)-1H-pyrazol-1-yl)-3-cyclobutylpropionitrile] | – |
| < 5 nM | 120 nM | < 5 nM | N#CC[C@@H](C1CCC1)n1cc(-c2ncnc3[nH]ccc23)c(N)n1 [Example 28, (S)-3-(3-amino-4-(7H-pyrrolo[2,3-d]pyrimidin-4-yl)-1H-pyrazol-1-yl)-3-cyclobutylpropionitrile] | – |
| < 5 nM | 106 nM | < 5 nM | N#CC[C@H](C1CCCCC1)n1cc(-c2ncnc3[nH]ccc23)c(N)n1 [Example 29, (R)-3-(3-amino-4-(7H-pyrrolo[2,3-d]pyrimidin-4-yl)-1H-pyrazol-1-yl)-3-cyclohexylpropionitrile] | significantly decreased |
| < 5 nM | 182 nM | < 5 nM | N#CC[C@@H](C1CCCCC1)n1cc(-c2ncnc3[nH]ccc23)c(N)n1 [Example 30, (S)-3-(3-amino-4-(7H-pyrrolo[2,3-d]pyrimidin-4-yl)-1H-pyrazol-1-yl)-3-cyclohexylpropionitrile] | – |
